Source: PubChem BioAssay (NCI)
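Results reflect a 48-hour exposure of cells in 96-well plates to compound at five concentrations. Definition used: TGI = concentration required for complete inhibition of growth.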

Columns and labels:
Assay in all cases: inhibition of tumour cell growth, NCI panel, 48 h
[1] = test system: DMS 273 small cell lung
[2] = test system: M19-MEL melanoma
[3] = test system: RXF-631 renal
[4] = test system: XF 498 CNS

COc1ccc(Cc2c3cc(O)c(=O)cc-3ccn2C)cc1
TGI [1]: > 100 µM
TGI [2]: 75 µM
TGI [3]: > 100 µM
TGI [4]: > 100 µM
